Experimental data from patent US10940188B2, “Compounds and methods for treatment and prevention of Flavivirus infection” (priority 2016, dated 2021).

Experiments:
[1] = test system: forebrain-specific hNPCs infected by FSS13025; assay: Immunostaining of ZIKV-infected forebrain-specific hNPCs (monolayer) for cleaved caspase-3 and ZIKVE; format: cell-based, human
From the text: (§1) FIGS. 1A-1, 1A-2, 1A-3, 1B-1, 1B-2, 1C-1, and 1C-2. Emricasan suppresses cell death of ZIKV-infected human astrocytes and hNPCs in 2D monolayer cultures and 3D brain organoids. Emricasan (FIG. 1A-1) inhibits caspase-3 activity and improves cell viability in human astrocytes infected with three different strains of ZIKV in a concentration dependent manner. Value represent mean±s.d. (n=3). The curves (FIGS. 1A-2 and 1A-3) represent best fit. (FIG. 1B) Sample images of immunostaining (FIG. 1B-1) of forebrain-specific hNPCs for ZIKV envelop protein (ZIKVE; green) and cleaved-caspase 3 (Cas3; red) and DAPI (gray) 72 hours after ZIKV FSS-13025 infection (MOI=0.04-0.08; Scale bar: 20 μm), and quantification (FIG. 1B-2). Values represent mean±s.e.m. (n=3; **P<0.01; Student's t-test). Sample images (FIG. 1C-1) of immunostaining of day 28 human forebrain-specific organoids for ZIKVE (green) and Cas3 (red) and DAPI (gray) 10 days after ZIKV FSS-13025 infection (Scale bar: 100 μm), and quantification (FIG. 1C-2). Values represent mean±s.e.m. (n=6; ***P<0.001; Student's t-test).
Cells were fixed with 4% paraformaldehyde (Sigma) for 15 min at room temperature. Samples were permeabilized and blocked with 0.25% Triton X-100 (Sigma) and 10% donkey or goat serum in PBS for 20 min as previously described (Chiang et al., 2011; [41]; Yoon et al., 2014). […]

[2] = test system: human forebrain-specific organoids infected by FSS13025; assay: Immunostaining of ZIKV-infected forebrain-specific organoids for cleaved caspase-3 and ZIKVE; format: cell-based; details: FSS13025 infection, 10 days
From the text: as §1
Forebrain-specific organoids were generated from the C2-1 human iPSC line as previously described. Briefly, human iPSC colonies were detached 7 days after passage with Collagenase Type IV, washed with fresh stem cell medium and cultured in a 15 ml conical tube. […]

[3] = test system: liver injury and fibrosis; details: murine NASH model; cited from earlier work
ZIKV MR766 NS1 = assay: microbe, parasite or virus in culture; format: cell-based, Zika virus; details: Zika virus, HEK293, 48 h, read-out: NS1-IC50
Procedure: A one-step NS1 TR-FRET (Time-resolved fluorescence resonance energy transfer) assay for a screen of anti-ZIKV compounds was carried out. Human embryonic kidney cell line HEK293 cells were seeded into 384-well plates and infected with ZIKV MR766 at a MOI of 0.5 for 2 days. The FRET assay was performed with two clones of anti-NS1 antibody (ab) differentially labelled with donor and acceptor fluorophores.

Compound: C[C@H](NC(=O)C(=O)Nc1ccccc1C(C)(C)C)C(=O)N[C@@H](CC(=O)O)C(=O)COc1c(F)c(F)cc(F)c1F [Emricasan]
- number of cleaved caspase-3-expressing hNPCs, monolayer ([1]; FSS13025 infection, 72 hours): reduced the number of active (cleaved) caspase-3-expressing forebrain-specific hNPCs
- suppression of ZIKV replication (ZIKV antigen in 2D and 3D cultures) ([1]; after Emricasan treatment): does not suppress ZIKV replication
- number of cleaved caspase-3-expressing hNPCs, 3D organoid cultures [2]: reduced the number of active (cleaved) caspase-3-expressing forebrain-specific hNPCs
- liver injury and fibrosis [3]: reduces liver injury and fibrosis

Compound: CC[C@H]1CN2CCc3cc(OC)c(OC)cc3[C@@H]2C[C@@H]1C[C@H]1NCCc2cc(OC)c(OC)cc21 [Emetine]
- IC50 (ZIKV MR766 NS1): 114 nM
